Laboratory results: US20190225670A1, “COMPOUNDS AND METHODS FOR ACTIVATING TIE2 SIGNALING” (ASCLEPIX THERAPEUTICS, LLC, priority 2016, published 2019)

Experiments:
[1] = target: integrin α5β1 (Homo sapiens, UniProt P05556+P08648); conditions: Lee et al., Sci Rep. 2014; cited from earlier work
[2] = test system: MEC monolayers; assay: FITC Transwell permeability assay; format: cell-based, human
Description: The integrity of these junctions is also important for the regulation of monolayer permeability by controlling the size of intercellular openings. The effect of the AXT107 on EC permeability was further investigated by the transendothelial diffusion of FITC-labeled dextran across MEC monolayers seeded onto permeable Transwell® substrates.
Transwell, twenty-four-well inserts (Corning) were coated with 7.5 μg/cm^2 FN1 for two hours at 37° C., aspirated, and then dried for thirty minutes at room temperature. Wells were then seeded with 7.5×10^4 MECs in 100 μl of EBM-2 media (without phenol red) and allowed to settle for thirty minutes at room temperature. 1 ml of EGM-2 media was then added to the bottom chamber and an additional 200 μl to the top chamber. The plate was incubated for twenty-four hours at 37° C. after which the media was aspirated and an additional 7.5×10^4 MECs were plated in each well as described above. After forty-eight hours at 37° C., the media was aspirated from both chambers and the cells were washed twice in dPBS containing Ca^2+ and Mg^2+, once with EBM-2 media (without phenol red) and serum starved in EBM-2 media applied to both chambers for two hours at 37° C. After this incubation, 100 μM AXT107 or an equivalent amount of DMSO vehicle was added and incubated for an additional ninety minutes. In the top chamber, the cells were then treated with 200 ng/ml Ang2, 100 ng/ml VEGFA, both, or PBS control and in the bottom chamber, the cells were then treated with 25 μg/ml FITC-Dextran (40 kDa MW). AXT107 was also added in both chambers to maintain a concentration of 100 μM. After three hours, 10 μl was removed from the top chamber of each well and mixed with 90 μl of water in a clear bottom, 96-well plate. Fluorescence values for each sample were calculated using a Perkin Elmer plate reader.

[3] = test system: VEGFR2, c-Met, IGF1R, and PDGFRβ; conditions: Lee et al., Sci Rep. 2014; cited from earlier work
[4] = test system: Erk1/2; assay: Western blot of phospho-Erk1/2 in MEC lysates treated with Ang2 and AXT107; format: cell-based, human; conditions: AXT107 and Ang2, all tested conditions
Description: For Ang1/2 signaling investigations, cell culture dishes (10 cm diameter) were coated with 5 μg/ml fibronectin (FN1; Sigma-Aldrich, St. Louis, Mo.) for two hours at 37° C. The FN1 solution was then removed by aspiration and 5×10^6 microvascular endothelial cells (MECs; Lonza, Walkersville, Md.) were plated in EGM-2MV media (Lonza) and cultured for forty-eight hours at 37° C. The cells were then serum starved for sixteen hours in serum-free EGM-2 base media (Lonza). AXT107 (0-100 μM, as indicated) was subsequently added to each culture and incubated for seventy-five minutes at 37° C. The cultures were then treated with 1 mM sodium vanadate (New England Biolabs, Ipswich, Mass.) for fifteen minutes to enhance the phospho-Tie2 signal followed by stimulation with 200 ng/ml angiopoietin (R&D Systems, Minneapolis, Minn.) for an additional fifteen minutes. […] Specific proteins were identified by Western blot, using the following primary antibodies: Cell Signaling—phospho-Tie2 (Y992) (Cat#: 4221), Tie2 (Cat#: 7403), phospho-Stat3 (Y705) (Cat#: 4113), Stat3 (Cat#: 4904), phospho-Akt (S473) (Cat#: 4058), Akt (Cat#: 9272), phospho-p44/42 MAPK (T202/Y204) (Cat#: 4370), p44/42 MAPK (Cat#: 4695); BD Transduction Laboratories—β1 integrin (Cat#: 610467); Millipore—α5 integrin (Cat#: AB1928) and detected with HRP-conjugated goat anti-rabbit and sheep anti-mouse secondary antibodies (GE healthcare).

Sequence of integrin α5β1 (P08648 42-1049): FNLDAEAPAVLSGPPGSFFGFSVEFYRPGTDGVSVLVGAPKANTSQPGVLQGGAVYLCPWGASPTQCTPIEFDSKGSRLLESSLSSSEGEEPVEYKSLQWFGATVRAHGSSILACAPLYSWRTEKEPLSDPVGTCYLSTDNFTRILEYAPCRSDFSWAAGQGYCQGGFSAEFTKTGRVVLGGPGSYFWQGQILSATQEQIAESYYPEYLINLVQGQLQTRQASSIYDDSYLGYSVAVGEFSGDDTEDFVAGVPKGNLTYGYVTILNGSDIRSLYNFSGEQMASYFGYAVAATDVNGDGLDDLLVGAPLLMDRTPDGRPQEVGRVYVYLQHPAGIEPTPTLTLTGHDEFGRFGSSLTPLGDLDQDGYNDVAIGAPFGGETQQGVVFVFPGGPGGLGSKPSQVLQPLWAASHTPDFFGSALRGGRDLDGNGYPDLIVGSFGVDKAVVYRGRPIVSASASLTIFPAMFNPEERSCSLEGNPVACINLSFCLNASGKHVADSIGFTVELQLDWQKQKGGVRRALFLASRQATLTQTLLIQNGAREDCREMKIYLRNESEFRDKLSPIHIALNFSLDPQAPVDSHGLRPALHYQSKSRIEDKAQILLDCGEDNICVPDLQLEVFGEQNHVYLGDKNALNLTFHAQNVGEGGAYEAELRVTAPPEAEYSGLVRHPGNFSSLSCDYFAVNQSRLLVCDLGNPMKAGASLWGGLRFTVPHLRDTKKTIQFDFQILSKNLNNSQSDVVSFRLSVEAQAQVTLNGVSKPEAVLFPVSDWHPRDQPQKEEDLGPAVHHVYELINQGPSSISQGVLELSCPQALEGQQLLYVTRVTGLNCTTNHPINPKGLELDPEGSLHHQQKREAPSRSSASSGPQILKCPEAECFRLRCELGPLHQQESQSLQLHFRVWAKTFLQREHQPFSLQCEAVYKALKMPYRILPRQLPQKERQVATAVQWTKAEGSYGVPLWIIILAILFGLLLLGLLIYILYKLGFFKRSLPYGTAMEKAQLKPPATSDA
Sequence of integrin α5β1 (P05556 21-798): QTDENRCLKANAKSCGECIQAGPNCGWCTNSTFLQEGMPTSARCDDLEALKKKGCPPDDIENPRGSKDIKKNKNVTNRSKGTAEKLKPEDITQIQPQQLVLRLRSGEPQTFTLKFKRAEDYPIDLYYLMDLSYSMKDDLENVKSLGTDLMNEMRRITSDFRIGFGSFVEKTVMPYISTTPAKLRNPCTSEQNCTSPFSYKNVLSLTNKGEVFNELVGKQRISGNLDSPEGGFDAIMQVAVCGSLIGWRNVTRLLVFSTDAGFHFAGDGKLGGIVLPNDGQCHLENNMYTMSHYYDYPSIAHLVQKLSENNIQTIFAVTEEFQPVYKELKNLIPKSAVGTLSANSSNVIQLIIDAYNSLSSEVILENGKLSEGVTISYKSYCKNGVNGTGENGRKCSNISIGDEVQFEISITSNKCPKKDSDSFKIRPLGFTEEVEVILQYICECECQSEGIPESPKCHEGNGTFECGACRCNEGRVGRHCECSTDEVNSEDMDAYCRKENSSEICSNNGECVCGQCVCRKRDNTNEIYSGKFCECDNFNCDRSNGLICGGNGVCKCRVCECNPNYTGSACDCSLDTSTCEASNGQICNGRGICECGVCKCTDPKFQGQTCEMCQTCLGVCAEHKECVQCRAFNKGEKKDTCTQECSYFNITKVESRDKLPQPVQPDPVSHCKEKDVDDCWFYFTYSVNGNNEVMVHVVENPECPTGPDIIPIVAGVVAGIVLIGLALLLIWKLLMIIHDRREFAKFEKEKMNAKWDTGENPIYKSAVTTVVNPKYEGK

For LRRFSTAPFAFIDINDVINF [AXT107], the “binding to integrin α5β1” value [1] is listed as “binds tightly”, the “FITC-dextran diffusion into the top chamber” value ([2]; Ang2 alone added to monolayers pre-incubated with 100 μM AXT107, vs growth factor alone) is listed as “significant decrease” and the “FITC-dextran diffusion into the top chamber” value ([2]; Ang2 in combination with VEGF, monolayers pre-incubated with 100 μM AXT107, vs growth factors alone) is listed as “significant decrease”. For the same sequence, the FITC-dextran diffusion ([2]; VEGF in presence vs absence of peptide) was “similar, but non-significant trend”, the “FITC-dextran diffusion across the monolayer, single treatment” value ([2]; each agent alone) was “influenced FITC-dextran diffusion across the monolayer” and the “receptor phosphorylation and downstream signals of RTKs” value [3] was “significantly decreases”. The Erk1/2 phosphorylation [4] was “remained constant”.
